Laboratory results: ChEMBL document CHEMBL1139518, “A new structural motif for mu-opioid antagonists” (J Med Chem, 2005)
Where a SMILES comes first, the peptide text is derived from it.

What was measured:
[1] = Antagonist activity of compound against TAPP-induced electrically evoked contractions of guinea pig ileum; type: functional, Cavia porcellus
[2] = target: Delta-type opioid receptor (Rattus norvegicus, UniProt P33533); assay: Inhibition of [3H][Ile5,6]-deltorphin I binding to rat Opioid receptor delta
Chain of Delta-type opioid receptor (P33533 whole entry): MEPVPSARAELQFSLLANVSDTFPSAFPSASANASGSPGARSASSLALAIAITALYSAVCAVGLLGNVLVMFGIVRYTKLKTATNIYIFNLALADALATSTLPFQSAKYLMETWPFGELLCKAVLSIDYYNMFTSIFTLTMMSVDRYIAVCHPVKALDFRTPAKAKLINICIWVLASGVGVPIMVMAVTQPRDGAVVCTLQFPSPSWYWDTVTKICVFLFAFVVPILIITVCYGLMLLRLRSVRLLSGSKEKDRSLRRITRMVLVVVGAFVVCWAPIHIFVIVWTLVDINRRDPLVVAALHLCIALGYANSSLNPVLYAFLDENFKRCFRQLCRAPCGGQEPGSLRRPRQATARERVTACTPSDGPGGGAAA

[3] = Ratio of antagonist activity against TAPP-induced contractions of guinea pig ileum to that of DPDPE-induced contractions of mouse vas deferens; type: functional, Cavia porcellus
[4] = target: Mu-type opioid receptor (Rattus norvegicus, UniProt P33535); assay: Inhibition of [3H]naloxone binding to rat Opioid receptor mu
Chain of Mu-type opioid receptor (P33535 whole entry): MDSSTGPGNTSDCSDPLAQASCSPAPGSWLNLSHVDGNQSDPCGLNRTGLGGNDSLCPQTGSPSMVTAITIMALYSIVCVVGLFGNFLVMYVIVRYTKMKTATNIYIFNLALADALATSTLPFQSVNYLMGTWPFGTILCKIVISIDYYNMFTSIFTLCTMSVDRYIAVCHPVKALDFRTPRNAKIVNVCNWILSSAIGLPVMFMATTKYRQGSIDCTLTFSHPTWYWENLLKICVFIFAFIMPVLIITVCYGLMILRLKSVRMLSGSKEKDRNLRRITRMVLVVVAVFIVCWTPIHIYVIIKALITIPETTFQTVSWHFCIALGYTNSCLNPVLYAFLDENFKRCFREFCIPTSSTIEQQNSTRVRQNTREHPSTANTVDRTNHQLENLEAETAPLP

[5] = organism: Mus musculus; assay: Antagonist activity of compound against DPDPE-induced electrically evoked contractions of mouse vas deferens; type: functional
[6] = organism: Mus musculus; assay: Atagonist activity of compound against DPDPE-induced electrically evoked contractions of mouse vas deferens; type: functional

| SMILES | Ke [1] | Ki [2] | Ratio [3] | Ki [4] | Ke [5] | Ke [6] |
| --- | --- | --- | --- | --- | --- | --- |
| Cc1cc(O)cc(C)c1C[C@@H](N)CN1Cc2ccccc2C[C@H](NC(=O)Cc2ccccc2)C1=O | 207 nM | 684 nM | 1.666 | 15.1 nM | 185 nM | – |
| Cc1cc(O)cc(C)c1C[C@H](N)CN1Cc2ccccc2C[C@@H](NC(=O)Cc2ccccc2)C1=O | 823 nM | 1100 nM | 0.5 | 23.5 nM | 1590 nM | – |
| Cc1cc(O)cc(C)c1C[C@@H](N)CN1Cc2ccccc2C[C@@H](NC(=O)Cc2ccccc2)C1=O | 85.1 nM | 2900 nM | 0.058 | 41.7 nM | 1440 nM | – |
| Cc1cc(O)cc(C)c1C[C@H](N)CN1Cc2ccccc2C[C@H](NC(=O)Cc2ccccc2)C1=O | 38.6 nM | 25.8 nM | 0.125 | 3.3 nM | 318 nM | – |
| N[C@@H](Cc1ccc(O)cc1)C(=O)N1Cc2ccccc2C[C@H]1C(=O)N[C@@H](Cc1ccccc1)C(=O)N[C@@H](Cc1ccccc1)C(=O)O (HELM PEPTIDE1{Y.[Tic].F.F}$$$$V2.0) | – | – | – | – | – | 4.8 nM |
